Laboratory results published in patent publication US6800770B2, “Anti-spasticity of an eicosanoid analog” (Virginia Commonwealth University, priority 2002, dated 2004).

Experiments:
CB1 = molecular target: T1, CB1 (Rattus norvegicus, UniProt P20272); type: binding; settings: displacement of [3H]CP55940, whole rat brain membranes; means ± S.D., n=3; read-out: CB1 affinity (Ki)
T1 construct: from whole rat brain membranes; from tissue; host or cells: whole rat brain membranes

human VR1 receptors = molecular target: T2, human VR1 receptors (Homo sapiens, UniProt Q8NER1); experiment: Enhancement of [Ca2+] via HEK-hVR1 cells; type: cell-based
T2 construct: expressed in transfected cells; host or cells: HEK-hVR1 cells
Description: J. Pharm. Exp. Ther. 300: 984.

[1] = tested on: spasticity in Biozzi ABH mice; settings: 0.05 mg/kg i.v.; baseline vs 30 min after treatment
Description: This was assessed to detect limb stiffness by analysis using a strain gauge (Baker et al 2000). The analogue signal from the strain gauge was amplified and digitally converted using an ComputerBoards Inc PCM-DAS16S/12 card (Amplicon, Brighton, UK). This was captured using Dacquire V10 software (D.Buckwell, Institute of Neurology, UK) and analyzed using Spike 2 software (Cambridge Electronics Design, UK). The hindlimbs were fully extended twice then moved to full flexion against the strain gauge. The mean of 4-8 individual readings per limb was taken for each time point. Results are expressed as means of forces of resistance to flexion (in Newtons) and SEM per group.
Statistical analysis was performed using Sigmastat 2.0 (Jandel/SPSS, USA) using one-way repeated measures analysis of variance (ANOVA) incorporating a pair-wise Student-Newman-Keuls (SNK) test. […] N=13 limbs analyzed from 8 spastic animals.
Arvanil treatment was carried out with and without pretreatment of the animals with SR141617A, SR144528 (known to inhibit CB1 and CB2 receptor function, respectively) and capsazepine, a known antagonist of the vanilloid recpetor (VR-1).

T2 sequence (Q8NER1 whole entry): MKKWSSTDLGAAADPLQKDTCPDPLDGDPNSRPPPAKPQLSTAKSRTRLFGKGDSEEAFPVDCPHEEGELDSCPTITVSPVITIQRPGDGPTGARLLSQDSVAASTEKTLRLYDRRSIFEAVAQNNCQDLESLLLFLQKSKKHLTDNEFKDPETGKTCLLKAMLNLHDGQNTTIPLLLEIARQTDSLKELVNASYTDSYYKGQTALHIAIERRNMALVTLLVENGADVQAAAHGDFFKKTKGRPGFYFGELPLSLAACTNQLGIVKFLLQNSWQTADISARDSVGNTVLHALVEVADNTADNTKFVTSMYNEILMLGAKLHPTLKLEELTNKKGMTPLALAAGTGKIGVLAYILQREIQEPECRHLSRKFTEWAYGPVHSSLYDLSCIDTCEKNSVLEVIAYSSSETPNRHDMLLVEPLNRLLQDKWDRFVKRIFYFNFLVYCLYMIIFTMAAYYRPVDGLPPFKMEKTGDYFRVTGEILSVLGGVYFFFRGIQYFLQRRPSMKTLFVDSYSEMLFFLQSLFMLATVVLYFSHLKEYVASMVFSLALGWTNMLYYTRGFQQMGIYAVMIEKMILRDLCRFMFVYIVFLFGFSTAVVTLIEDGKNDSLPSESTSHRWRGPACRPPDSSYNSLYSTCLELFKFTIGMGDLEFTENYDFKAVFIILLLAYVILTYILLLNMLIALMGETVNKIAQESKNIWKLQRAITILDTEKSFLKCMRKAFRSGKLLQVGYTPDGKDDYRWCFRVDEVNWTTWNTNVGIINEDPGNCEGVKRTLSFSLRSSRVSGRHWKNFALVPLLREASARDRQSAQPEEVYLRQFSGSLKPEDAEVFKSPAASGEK
T1 sequence (P20272 whole entry): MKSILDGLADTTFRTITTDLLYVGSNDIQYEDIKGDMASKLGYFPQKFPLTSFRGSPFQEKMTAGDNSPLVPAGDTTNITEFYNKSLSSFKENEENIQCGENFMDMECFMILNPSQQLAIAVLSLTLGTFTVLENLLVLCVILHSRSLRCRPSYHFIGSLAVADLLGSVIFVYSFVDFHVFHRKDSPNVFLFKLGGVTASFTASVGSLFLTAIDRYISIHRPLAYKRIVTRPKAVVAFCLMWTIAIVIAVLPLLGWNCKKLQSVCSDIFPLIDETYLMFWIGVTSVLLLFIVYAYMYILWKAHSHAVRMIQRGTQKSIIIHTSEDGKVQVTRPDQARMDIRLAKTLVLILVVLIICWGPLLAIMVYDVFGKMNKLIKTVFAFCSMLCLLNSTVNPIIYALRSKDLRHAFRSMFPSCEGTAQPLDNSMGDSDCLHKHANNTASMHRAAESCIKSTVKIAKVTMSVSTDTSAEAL

CCCCC/C=C\C/C=C\C/C=C\C/C=C\CCCC(=O)N(Cc1ccc(O)c(Cl)c1)Cc1ccc(O)c(Cl)c1 [O-2093, N,N-Di-3-chloro-4-hydroxybenzylarachadonamide]
Ki (CB1): 1.29 ± 0.14 µM | Emax (human VR1 receptors; in parentheses in the hVR1 potency column, read-out: hVR1 efficacy (maximal effect as percentage of the effect of 4 μM capsaicin)): 26.9% | EC50 (human VR1 receptors; read-out: hVR1 potency (EC50), means ± S.D., n=3): > 50 µM | decrease in resistance to flexion [1]: ~35%
